The results in this text go back to patent US7005430B2, “Fused purine derivatives” (Kyowa Hakko Kogyo Co., Ltd., priority 1999, dated 2006).

The structures appear in SMILES notation. Where a name gives a salt, the structure may show the parent alone.

For one data set, the system named is MIN6 cell. The data set is described as follows: Insulin secretion promoting activity for cultured β cells (MIN6). The data set is classed as cell-based. The following applies: for secretion promoting action at a low glucose concentration (in words): MIN6 cells, glucose at a low concentration (5 mmol/L). How it is done: Culture of the MIN6 cells above and insulin secretion test utilizing the MIN6 cells were performed according to the methods described in Diabetologia, vol. 36, pp. 1139–1145, 1993. The effect of a compound on the insulin secretion in the presence of 14.5 mmol/L glucose was determined by measuring insulin amounts in cell culture supernatants collected as follows. MIN6 cells cultured on a 24-well plate were washed twice by using 1 mL of Buffer A (119 mmol/L sodium chloride, 4.74 mmol/L potassium chloride, 2.54 mmol/L calcium chloride, 1.19 mmol/L magnesium sulfate, 1.19 mmol/L potassium dihydrogenphosphate, 10 mmol/L 2-[4-(2-hydroxyethyl)-1-piperazinyl]ethanesulfonic acid, 0.1% bovine serum albumin, pH 7.3) containing 2 mmol/L glucose, and then were incubated in 1 mL of Buffer A containing 2 mmol/L glucose at 37° C. for 45 minutes. After the incubation, the culture supernatant was changed to Buffer A (0.9 mL) containing a test compound at various concentrations and 2 mmol/L glucose, and the cells were further incubated at 37° C. for 15 minutes. The MIN6 cells were stimulated with glucose by the addition of Buffer A (0.1 mL) containing 127 mmol/L glucose to the culture (final glucose concentration: 14.5 mmol/L). After the stimulation, the cells were further incubated at 37° C. for 45 minutes, and then the culture supernatant was collected.
Separately, the effect of a compound on the insulin secretion in the presence of 5 mmol/L glucose was determined by measuring insulin amounts in cell culture supernatants collected as follows. MIN6 cells cultured on a 24-well plate were washed twice by using 1 mL of Buffer A containing 5 mmol/L glucose, and then the culture supernatant was changed to Buffer A (0.9 mL) containing a test compound at various concentrations and 5 mmol/L glucose. Then, the cells were incubated at 37° C. for 45 minutes (final glucose concentration: 5 mmol/L), and the culture supernatant was collected.
After the culture supernatant was diluted with a phosphate buffer containing 1% bovine serum albumin, 0.1% Tween 20, 0.12% disodium ethylenediaminetetraacetate (EDTA) and 0.1% sodium azide, antibody-reactive insulin secreted in the culture supernatant was quantified by enzyme immunoassay or radio immunoassay. The insulin level was indicated as the amount of human insulin (ng/mL). The results are indicated as averages (avg) for 3 to 4 samples with standard erroe values (se).

Where [1] appears, read: in the presence of 5 mmol/L of glucose, drug concentration 10 (mmol/L [sic]), None = 51.2.
The mark [2] stands for this setting: in the presence of 14.5 mmol/L of glucose, drug concentration 1.0 μmol/L, None = 148.4.

Turning to `CCCN1C(=O)N2C[C@@H](Cc3ccccc3)N=C2c2[nH]c(CCC(=O)O)nc21`, the melting point lay in the range of 274 to 276 °C. As to `CCCN1C(=O)N2C[C@@H](Cc3ccccc3)N=C2c2[nH]c(C3CCN(C(=O)OC(C)(C)C)CC3)nc21.Cl`, the melting point lay in the range of 204 to 205 °C. As for `Cl.O=C(O)CN1C(=O)N2C[C@@H](Cc3ccccc3)N=C2c2[nH]c(C3CCCC3)nc21`, the melting point was 280 °C (dec.). `Cl.O=C1N2C[C@@H](Cc3ccc(F)cc3)N=C2c2[nH]c(C3CCCC3)nc2N1CCO`: the melting point is 165 to 167 °C. Same read-out and setting: the same measure for `CCCN1C(=O)N2CC(Cc3ccccc3)CN=C2c2[nH]c(COCC)nc21.O=C(O)/C=C/C(=O)O` (stereo not drawn): 152 to 157 °C; for `O=C1N2CC(Cc3ccncc3)N=C2c2[nH]c(C3CCCC3)nc2N1CC1CC1` (stereo not drawn) (as salt: hydrochloride) [Compound 14, 2-Cyclopentyl-4-cyclopropylmethyl-7,8-dihydro-8-(4-picolyl)-1H-imidazo[2,1-i]purin-5(4H)-one dihydrochloride]: 240 to 241 °C. Still for that read-out and setting: with `CCCN1C(=O)N2C[C@@H](Cc3ccccc3)N=C2c2[nH]c(C3(O)CCCC3)nc21` (as salt: salt) [Compound 40, (R)-8-Benzyl-7,8-dihydro-2-(1-hydroxycyclopentyl)-4-(n-propyl)-1H-imidazo[2,1-i]purin-5(4H)-one] the figure was 187 to 188 °C. In the case of `CC(C)[C@H]1CC[C@H](C(=O)N[C@H](Cc2ccccc2)C(=O)O)CC1` [AY4166, reference compound], the “secretion promoting action at a low glucose concentration (in words)” value with MIN6 cell is given as “marked secretion promoting action”. Also, the “Insulin secretion amount (ng/ml) avg” value is 170.8 ng/mL with MIN6 cell (setting [1]) and 195.1 ng/mL in the data set with MIN6 cell (in the presence of 14.5 mmol/L of glucose, drug concentration 10 μmol/L, None = 148.4). Consider `CCCN1C(=O)N2C[C@@H](Cc3ccncc3)N=C2c2[nH]c(C3CCCCC3)nc21` [Compound 9, (R)-2-Cyclohexyl-7,8-dihydro-8-(4-picolyl)-4-(n-propyl)-1H-imidazo[2,1-i]purin-5(4H)-one], for which the “Insulin secretion amount (ng/ml) avg” value in the data set on MIN6 cell (setting [1]) came to 74.0 ng/mL; with MIN6 cell (setting [2]) it was 197.6 ng/mL.

For the compound `CCCN1C(=O)N2C[C@@H](Cc3ccncc3)N=C2c2[nH]c(C3CCC3)nc21` [Compound 10, (R)-2-Cyclobutyl-7,8-dihydro-8-(4-picolyl)-4-(n-propyl)-1H-imidazo[2,1-i]purin-5(4H)-one D-tartrate], the figures for the “Insulin secretion amount (ng/ml) avg” value with MIN6 cell (setting [1]) and in the data set with MIN6 cell (setting [2]) were 74.9 ng/mL and 196.8 ng/mL, respectively. As for `O=C1N2CC(Cc3ccncc3)N=C2c2[nH]c(C3CCCC3)nc2N1CC1CC1` (stereo not drawn) [Compound 14, 2-Cyclopentyl-4-cyclopropylmethyl-7,8-dihydro-8-(4-picolyl)-1H-imidazo[2,1-i]purin-5(4H)-one dihydrochloride], the “Insulin secretion amount (ng/ml) avg” value is 66.4 ng/mL in the data set with MIN6 cell (setting [1]) and 177.9 ng/mL with MIN6 cell (setting [2]). Regarding `CCCN1C(=O)N2CC(Cn3cccn3)N=C2c2[nH]c(C3CCCC3)nc21` (stereo not drawn) [Compound 21, 2-Cyclopentyl-7,8-dihydro-4-(n-propyl)-8-(1-pyrazolylmethyl)-1H-imidazo[2,1-i]purin-5(4H)-one], the “Insulin secretion amount (ng/ml) avg” value came out at 74.8 ng/mL in the data set on MIN6 cell (setting [1]) and 182.1 ng/mL in the data set on MIN6 cell (setting [2]). `CCCN1C(=O)N2CC(Cn3cccc3)N=C2c2[nH]c(C3CCCC3)nc21` (stereo not drawn) [Compound 24, 2-Cyclopentyl-7,8-dihydro-4-(n-propyl)-8-(1-pyrrolylmethyl)-1H-imidazo[2,1-i]purin-5(4H)-one]: the “Insulin secretion amount (ng/ml) avg” value was determined as 71.8 ng/mL in the data set with MIN6 cell (setting [1]) and 200.0 ng/mL with MIN6 cell (setting [2]). As for `CCCN1C(=O)N2C[C@@H](Cc3ccccc3)N=C2c2[nH]c(C3(O)CCCC3)nc21` [Compound 40, (R)-8-Benzyl-7,8-dihydro-2-(1-hydroxycyclopentyl)-4-(n-propyl)-1H-imidazo[2,1-i]purin-5(4H)-one], the entries for the “Insulin secretion amount (ng/ml) avg” value in the data set with MIN6 cell (setting [1]) and in the data set with MIN6 cell (setting [2]) were 56.7 ng/mL and 191.2 ng/mL, respectively. As for `CCCN1C(=O)N2C[C@@H](Cc3ccccc3)N=C2c2[nH]c(COCC)nc21.CCCN1C(=O)N2C[C@@H](Cc3ccccc3)N=C2c2[nH]c(COCC)nc21.O=C(O)/C=C/C(=O)O` [Compound 45, (R)-8-Benzyl-2-ethoxymethyl-7,8-dihydro-4-(n-propyl)-1H-imidazo[2,1-i]purin-5(4H)-one 0.5 fumarate], the “Insulin secretion amount (ng/ml) avg” value worked out at 69.9 ng/mL with MIN6 cell (setting [1]) and 178.8 ng/mL in the data set on MIN6 cell (setting [2]).

On to `CCCN1C(=O)N2C[C@@H](Cc3ccccc3)N=C2c2[nH]c(C3CCCO3)nc21` (stereo partly drawn) [Compound 51, (R)-8-Benzyl-7,8-dihydro-4-(n-propyl)-2-(tetrahydrofuran-2-yl)-1H-imidazo[2,1-i]purin-5(4H)-one D-tartrate], for which the “Insulin secretion amount (ng/ml) avg” value turned out to be 79.2 ng/mL with MIN6 cell (setting [1]) and 180.8 ng/mL in the data set with MIN6 cell (setting [2]).

As for `CCCN1C(=O)N2C[C@@H](Cc3ccccc3)N=C2c2[nH]c(COCc3ccccc3)nc21.CCCN1C(=O)N2C[C@@H](Cc3ccccc3)N=C2c2[nH]c(COCc3ccccc3)nc21.O=C(O)/C=C/C(=O)O` [Compound 56, (R)-8-Benzyl-2-benzyloxymethyl-7,8-dihydro-4-(n-propyl)-1H-imidazo[2,1-i]purin-5(4H)-one 0.5 fumarate], the “Insulin secretion amount (ng/ml) avg” value in the data set with MIN6 cell (setting [1]) came to 56.2 ng/mL; with MIN6 cell (setting [2]), 189.0 ng/mL. As to `CCCN1C(=O)N2C[C@@H](Cc3ccccc3)N=C2c2[nH]c(CSCC)nc21.CCCN1C(=O)N2C[C@@H](Cc3ccccc3)N=C2c2[nH]c(CSCC)nc21.O=C(O)/C=C/C(=O)O` [Compound 64, (R)-8-Benzyl-2-ethylthiomethyl-7,8-dihydro-4-(n-propyl)-1H-imidazo[2,1-i]purin-5(4H)-one 0.5 fumarate], the figures for the “Insulin secretion amount (ng/ml) avg” value in the data set on MIN6 cell (setting [1]) and in the data set on MIN6 cell (setting [2]) were 61.2 ng/mL and 204.9 ng/mL, respectively. For the compound `CSCCCOC1=Nc2nc(C3CCCC3)[nH]c2C2=N[C@H](Cc3ccccc3)CN12` [Compound 71, (R)-8-Benzyl-2-cyclopentyl-7,8-dihydro-5-(3-methylthiopropyloxy)-1H-imidazo[2,1-i]purine], the figures for the “Insulin secretion amount (ng/ml) avg” value in the data set on MIN6 cell (setting [1]) and in the data set with MIN6 cell (setting [2]) were 107.7 ng/mL and 211.0 ng/mL, respectively. Consider `CC(C)(O)CN1C(=O)N2C[C@@H](Cc3ccccc3)N=C2c2[nH]c(C3CCCC3)nc21` [Compound 81, (R)-8-Benzyl-2-cyclopentyl-7,8-dihydro-4-(2-hydroxy-2-methylpropyl)-1H-imidazo[2,1-i]purin-5(4H)-one hydrochloride], for which the “Insulin secretion amount (ng/ml) avg” value in the data set on MIN6 cell (setting [1]) came to 83.1 ng/mL; in the data set on MIN6 cell (setting [2]) it was 195.4 ng/mL.

`CC(C)(O)CCN1C(=O)N2C[C@@H](Cc3ccccc3)N=C2c2[nH]c(C3CCCC3)nc21` [Compound 85, (R)-8-Benzyl-2-cyclopentyl-7,8-dihydro-4-(3-hydroxy-3-methylbutyl)-1H-imidazo[2,1-i]purin-5(4H)-one hydrochloride]: the “Insulin secretion amount (ng/ml) avg” value was 53.6 ng/mL with MIN6 cell (setting [1]) and 197.1 ng/mL in the data set with MIN6 cell (setting [2]). On to `COc1ccc(Cl)cc1C(=O)NCCc1ccc(S(=O)(=O)NC(=O)NC2CCCCC2)cc1` [Glibenclamide, reference compound], for which, in the data set on MIN6 cell, the “secretion promoting action at a low glucose concentration (in words)” value is “marked secretion promoting action”. In addition, the “Insulin secretion amount (ng/ml) avg” value came to 156.8 ng/mL with MIN6 cell (in the presence of 5 mmol/L of glucose, drug concentration 0.1 (mmol/L [sic]), None = 51.2) and 177.8 ng/mL in the data set with MIN6 cell (in the presence of 14.5 mmol/L of glucose, drug concentration 0.1 μmol/L, None = 148.4).
